Laboratory results as given in US10703746B2, “Mutant IDH1 inhibitors useful for treating cancer” (THE UNITED STATES OF AMERICA, AS REPRESENTED BY THE …, priority 2014, dated 2020).

Key:
IDH1 R132C = IDH1 R132C (Homo sapiens, UniProt O75874, R132C); experiment: IDH1 R132C enzymatic assay (NADPH depletion coupled to diaphorase/resazurin); assay type: biochemical; details: IDH1 R132C enzymatic inhibition, IC50 class
Outline: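 NADPH depletion, read via diaphorase/resazurin coupling, after adding substrate at 0.6 mM α-KG and 0.012 mM NADPH. Beforehand, 0.00032 mg/mL enzyme sat with compound 30 min at room temperature in pH 6.5 potassium phosphate buffer with MgCl2, glycerol and BSA.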

IDH1 R132H = IDH1 R132H (Homo sapiens, UniProt O75874, R132H); experiment: IDH1 R132H enzymatic assay (NADPH depletion coupled to diaphorase/resazurin); assay type: biochemical; details: IDH1 R132H enzymatic inhibition, IC50 class
Sequence of IDH1 R132H (O75874 whole entry R132H): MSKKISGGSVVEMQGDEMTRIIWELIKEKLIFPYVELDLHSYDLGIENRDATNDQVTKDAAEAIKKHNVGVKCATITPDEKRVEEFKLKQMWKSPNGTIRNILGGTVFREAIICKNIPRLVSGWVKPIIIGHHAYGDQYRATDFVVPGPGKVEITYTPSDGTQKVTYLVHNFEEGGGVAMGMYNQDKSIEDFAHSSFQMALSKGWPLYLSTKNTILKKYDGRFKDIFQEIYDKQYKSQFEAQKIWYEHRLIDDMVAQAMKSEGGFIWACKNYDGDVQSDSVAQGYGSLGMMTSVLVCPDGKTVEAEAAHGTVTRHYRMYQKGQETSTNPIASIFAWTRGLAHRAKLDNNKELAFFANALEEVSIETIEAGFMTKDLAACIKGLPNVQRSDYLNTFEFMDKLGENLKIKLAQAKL

Sequence of IDH1 R132C (O75874 whole entry R132C): as the sequence (O75874 whole entry R132H) above, with H132C counted along it

Row | Compound | IC50 (IDH1 R132C) [µM] | IC50 (IDH1 R132H) [µM]
1 | CCc1cccc(CC)c1-n1c(CC(C)C)c(C(=O)N2CCNCC2)cc(-c2nc(-c3ccc(CN4CCOCC4)cc3)c(C)s2)c1=O [Compound 238] | 5 to 20 | 5 to 20
2 | CCc1cccc(CC)c1-n1c2c(cc(-c3nc(-c4cnn(C)c4)c(C)s3)c1=O)C(=O)CC(C)(C)C2 [Compound 239] | 1 to 5 | 1 to 5
3 | CCc1cccc(CC)c1-n1c2c(cc(-c3nc(-c4cccc(C)c4)cs3)c1=O)C(=O)CC(C)(C)C2 [Compound 240] | 1 to 5 | 5 to 20
4 | CC1(C)CC(=O)c2cc(-c3nc(-c4ccc(Cl)cc4)cs3)c(=O)n(-c3ccccc3C(C)(C)C)c2C1 [Compound 241] | 0.3 to 1 | 1 to 5
5 | CCc1cccc(CC)c1-n1c(C)c(C(=O)N2CC(O)C2)cc(-c2nc(-c3ccc(Cl)cc3)cs2)c1=O [Compound 242] | 1 to 5 | 1 to 5
6 | CCc1cccc(CC)c1-n1c(CC(C)C)c(C(=O)N2CCCC2CO)cc(-c2nc(-c3ccc(Cl)cc3)cs2)c1=O (stereo not drawn) [Compound 243] | 1 to 5 | 1 to 5
7 | COc1ccc(OC)c(-n2c3c(cc(-c4nc(-c5ccc(Cl)cc5)cs4)c2=O)C(=O)NCC3)c1 [Compound 244] | 1 to 5 | 1 to 5
8 | CCc1cccc(CC)c1-n1c(C)c(C(=O)N2CCC(N)C2)cc(-c2nc(-c3ccc(Cl)cc3)cs2)c1=O (stereo not drawn) [Compound 245] | 1 to 5 | 1 to 5
9 | Cc1cccc(O)c1-n1c2c(cc(-c3nc(-c4ccc(Cl)cc4)cs3)c1=O)C(=O)CC(C)(C)C2 [Compound 246] | 1 to 5 | 1 to 5
10 | CCc1cccc(CC)c1-n1c(C(C)C)c(C(=O)N2CCN[C@H](C(=O)OC)C2)cc(-c2nc(-c3ccc(Cl)cc3)cs2)c1=O [Compound 247] | 1 to 5 | 5 to 20
11 | CC1(C)CC(=O)c2cc(-c3nc(-c4ccc(Cl)cc4)cs3)c(=O)n(-c3ccccc3N3CCOCC3)c2C1 [Compound 248] | 0.3 to 1 | 1 to 5
12 | CCc1cccc(CC)c1-n1c2c(cc(-c3nc(-c4cccc(O)c4)cs3)c1=O)C(=O)CC(C)(C)C2 [Compound 249] | 1 to 5 | 1 to 5
13 | CCc1cccc(CC)c1-n1c(C)c(C(=O)N2CCCC(O)C2)cc(-c2nc(-c3ccc(Cl)cc3)cs2)c1=O (stereo not drawn) [Compound 250] | 1 to 5 | 1 to 5
14 | CCc1cccc(CC)c1-n1c2c(cc(-c3nc(-c4ccc(Cl)cc4)c(C)s3)c1=O)C(=O)CC(C)(C)C2 [Compound 251] | < 0.3 | 0.3 to 1
15 | CCc1cccc(CC)c1-n1c(C(C)C)c(C(=O)N2CCN[C@H](CO)C2)cc(-c2nc(-c3ccc(Cl)cc3)cs2)c1=O [Compound 252] | 0.3 to 1 | 0.3 to 1
16 | COc1ccc(OC)c(-n2c3c(cc(-c4nc(-c5ccc(Cl)cc5)cs4)c2=O)C(=O)CN(C)C3)c1 [Compound 253] | 1 to 5 | 1 to 5
17 | COC(=O)c1ccccc1-n1c2c(cc(-c3nc(-c4ccc(Cl)cc4)cs3)c1=O)C(=O)CC(C)(C)C2 [Compound 254] | 0.3 to 1 | 0.3 to 1
18 | CC1(C)CC(=O)c2cc(-c3nc(-c4ccncc4)cs3)c(=O)n(-c3ccccc3C(F)(F)F)c2C1 [Compound 255] | 1 to 5 | 1 to 5
19 | CC(C)COc1ccccc1-n1c2c(cc(-c3nc(-c4ccc(Cl)cc4)cs3)c1=O)C(=O)CC(C)(C)C2 [Compound 256] | 0.3 to 1 | 0.3 to 1
20 | CCc1cccc(CC)c1-n1c(CC(C)C)c(C(=O)N2CCNCC2)cc(-c2nc(-c3ccc(OC(C)C)cc3)c(C)s2)c1=O [Compound 257] | < 0.3 | 0.3 to 1
21 | CCc1cccc(CC)c1-n1c(C)c(C(=O)N2CCCC2C(=O)O)cc(-c2nc(-c3ccc(Cl)cc3)cs2)c1=O (stereo not drawn) [Compound 258] | 1 to 5 | 1 to 5
22 | CCc1cccc(CC)c1-n1c(C)c(C(=O)N2CCCC(C(=O)O)C2)cc(-c2nc(-c3ccc(Cl)cc3)cs2)c1=O (stereo not drawn) [Compound 259] | 5 to 20 | 5 to 20
23 | CCc1cccc(CC)c1-n1c(C)c(C(=O)NCC(N)=O)cc(-c2nc(-c3ccc(Cl)cc3)cs2)c1=O [Compound 260] | 1 to 5 | 1 to 5
24 | COc1ccc(OC)c(-n2c3c(cc(-n4cc(-c5ccccc5)nn4)c2=O)C(=O)CC(C)(C)C3)c1 [Compound 261] | 5 to 20 | 5 to 20
25 | CCc1cccc(CC)c1-n1c(C)c(C(=O)NCCCO)cc(-c2nc(-c3ccc(Cl)cc3)cs2)c1=O [Compound 262] | 0.3 to 1 | 1 to 5
26 | CCc1cccc(CC)c1-n1c(CC(C)C)c(C(=O)NC2CCNCC2)cc(-c2nc(-c3ccc(Cl)cc3)cs2)c1=O [Compound 263] | < 0.3 | 0.3 to 1
27 | CCc1cccc(CC)c1-n1c(C(C)C)c(C(=O)N2CCN[C@H](C(=O)O)C2)cc(-c2nc(-c3ccc(Cl)cc3)cs2)c1=O [Compound 264] | < 0.3 | 0.3 to 1
